Results published in patent US9687529B2, “Method of controlling coagulation” (Duke University, priority 2011, dated 2017).
Strand notation (5' to 3'): a small letter for the sugar, then the base; units joined by * are phosphorothioate-linked, units joined directly phosphodiester-linked; [ ] holds rarer units or linkages, { } end groups; capitals alone tell only the bases. r = 2'-OH (RNA); f = 2'-fluoro

Experiments:
[1] = system: clot formation in whole blood; experiment: Thromboelastography (TEG), whole blood stimulated with tissue factor; type: cell-based, human
Method: (§1) Blood was drawn from healthy, consented volunteers under a Duke University Institutional Review Board approved protocol and anticoagulated with 3.2% sodium citrate. Whole blood (320 μL) was mixed with anticoagulant (heparin or aptamers) (10 μL) and kaolin (Haemonetics, Niles, Ill.) (10 μL) or CAT PRP reagent (Diagnostica Stago, 0.33 ρM TF final) (10 μL) was added to stimulate clotting. CaCl2 (20 μL) was immediately added to overcome the citrate, the mixture was added to a plain disposable plastic TEG cup (Haemonetics), and the assay was run according to the manufacturer's instructions. Clot formation at 37° C. was measured with a Thromboelastograph Analyzer (Haemonetics, Niles, Ill.) until a stable clot was formed (i.e., a maximum amplitude was reached) or for three hours with the aptamer combinations. The time lag time, α-angle, and maximum amplitude were automatically calculated by the TEG® Analytical Software version 4.2.3 (Haemonetics).
Because kaolin stimulates blood via the intrinsic pathway, it is unlikely that 7S-1 (FVIIa aptamer) would impair clot formation with this type of stimulation; thus, this aptamer was tested in a modified TEG with TF stimulation. CAT platelet rich plasma (PRP) reagent (TF) was diluted to a final concentration of 0.33 ρM TF to stimulate clotting.

[2] = system: thrombin generation in normal human platelet poor plasma; experiment: Calibrated automated thrombography (CAT); type: biochemical
Method: Normal human platelet poor plasma (80 μL) was mixed with aptamer(s) (10 μL) in an Immunolon 2HB U Bottom Mictrotiter 96-well plate (Thermo Labsystems, Franklin, Mass.) and incubated at 37° C. for 5 min. PPP reagent (Diagnostica Stago, Parsippany, N.J.) (either 1 ρM or 5 ρM TF, 20 μL, Diagnostica Stago) was added, and the mixture was incubated at 37° C. for another 5 min. FluCa (Diagnostica Stago) (10 μL) was added to initiate the assay and thrombin generation was measured for 60 minutes at 37° C. with a Fluoroskan Ascent fluorometer (ThermoLabsystem, Helsinki, Finland) according to the manufacturer's instructions. The amount of thrombin generated was quantified by comparison to an assay with thrombin calibrator reagent (Diagnostica Stago) that has a known activity toward the fluorogenic substrate. The lag time, peak amount of thrombin generated, and endogenous thrombin potential (ETP) were automatically calculated by the Thrombinoscope software (Thrombinoscope BV, the Netherlands).
Thrombin is the final protease formed in the coagulation cascade, and the rate of thrombin generation and the total amount of thrombin generated is associated with blood clot formation and stability (Wolberg, Blood Rev 21:131-42 (2007)). To gain more information about the impact of aptamer anticoagulation on the kinetics of thrombin generation, the individual aptamers were analyzed with calibrated automated thrombography (CAT). The CAT assay measures real-time thrombin generation in plasma by monitoring cleavage of a thrombin-specific fluorogenic substrate in response to TF stimulation (Heruker et al, Pathophysiol Haemost Thromb 33: 4-15 (2003)). The parameters of thrombin generation analyzed include: the lag time (time until thrombin generation begins), the peak (the maximal amount of thrombin generated at a given time) and the endogenous thrombin potential (ETP, the total amount of thrombin generated). Similar to the aPTT and PT clotting assays, all of the individual aptamers dose-dependently impacted the various parameters of thrombin generation (FIG. 21 and Table 1). […] 9.3T minorly impacted all parameters of thrombin generation with the high TF reagent; however, because high concentrations of TF may bypass FIX activity by directly generating FXa, the manufacturer recommends low concentrations of TF for analyzing FIX deficient (i.e, Hemophilia B) plasma in the CAT.

[3] = system: clot formation in whole blood; experiment: Thromboelastography (TEG), whole blood stimulated with kaolin; type: cell-based, human
Method: as §1
Although the aPTT, PT, and CAT assays provide basic information about dose-dependent anticoagulation, these assays are performed in an environment that lacks platelets. Platelets play a crucial role in clot formation by providing a membrane surface upon which the clotting factors assemble, by aggregating and becoming physically incorporated into the blood clot, and by releasing internal stores of agonists that amplify coagulation (Monroe et al, Arterioscler Thromb Vasc Biol 22:138 1-9 (2002)). Therefore, a study was made of aptamer anticoagulation with thromboelastography (TEG), which provides real-time information about the kinetics of clot formation in whole blood (Reikvam et al, Transfus Apher Sci; 40:119-23 (2009). The TEG assay uses mechanical motion to quantify the physical properties of clot formation, including the lag time (the time until clot formation), the α-angle (the rate of clot formation), and the maximum amplitude (the mechanical strength of the clot formed).

[4] = system: clot formation in normal human platelet poor plasma; experiment: Activated partial thromboplastin time (aPTT) plasma clotting assay; type: biochemical; conditions: aPTT
Method: The activated partial thromboplastin time (aPTT) and prothrombin time (PT) assays were performed on a model ST4 mechanical coagulometer (Diagnostica Stago, Parsippany, N.J.) as previously described (Bompiani et al, J Thromb Haemost 10:870-80 (2012)). For the aPTT, 50 μL of normal human platelet poor plasma (PPP) was incubated with 50 μL TriniClot aPTT S (Trinity BioTech, Bray, Co Wicklow, Ireland) at 37° C. for 5 min. Aptamer(s) (5 μL) was added, and the mixture was incubated at 37° C. for another 5 min, and CaCl2 (50 μL) was added to initiate the assay. For the PT, 50 μL of normal human PPP was incubated with 5 μL of aptamer(s) at 37° C. for 5 min. TriniClot PT Excel reagent (Trinity BioTech, Bray, Co Wicklow, Ireland) (100 μL) was added to initiate the reaction. Assays with a combination of two aptamers contain an equimolar concentration of each individual aptamer, and the data shown are the total RNA concentration.
To compare the anticoagulant effect of these four aptamers, dose-response titrations were performed in several clinical plasma-based clotting assays. The activated partial thromboplastin time (aPTT) and prothrombin time (PT) are plasma clotting assays that are clinically used to probe for abnormalities in the intrinsic and extrinsic coagulation pathways, respectively (Van Cott et al, editors. Jacobs & DeMott laboratory test handbook. 5th ed. Hudson Ohio: Lexi-Comp. p. 327-58 (2001)). These relatively simple assays measure the time until clot formation in platelet poor plasma (PPP) in response to either robust tissue factor (TF), or contact stimulation via negatively charged surfaces (i.e., silica, kaolin, celite). […] At high concentrations, the prothrombin aptamer (R9D-14T) was the most robust anticoagulant and inhibited greater than 96% of prothrombin activity in the aPTT and PT. At 4 μM, R9D-14T increased the aPTT clotting time approximately 18-fold and the PT clotting time greater than 80-fold (exceeded the assay limit of 999 sec). […] At the same dose, the FIXa aptamer (9.3T) inhibited greater than 99% of FIX activity and increased the aPTT clotting time approximately 5.5-fold, while the FVIIa aptamer (7S-1) increased the PT clotting time 3-fold and inhibited greater than 99% of FVII activity (FIGS. 20A and 20B).

11F7Tmut: 11F7T mutant control, SEQ ID NO: 6 (rGrArGrArGfCfCfCfCrArGfCrGrArGrAfUrArAfUrAfCfUfUrGfUrAfCfCfCrGfCfUfCfUfU) [Aptamer 11F7Tmut, reference compound]
Angle ([1]; RNA 2.00 μM): 68.5 ± 0.5 deg | Lag-time ([1]; RNA 2.00 μM): 3.9 ± 0.2 min | Max. Amplitude ([1]; RNA 2.00 μM): 67.9 ± 0.7 mm | ETP ([2]; RNA 1,000 nM, TF 5 ρM): 1902.67 ± 87.44 nM·min | Lag-time ([2]; RNA 1,000 nM, TF 5 ρM): 1.39 ± 0.06 min | Peak ([2]; RNA 1,000 nM, TF 5 ρM): 391.12 ± 13.27 nM | TTP ([2]; RNA 1,000 nM, TF 5 ρM): 3.73 ± 0.06 min | Angle ([3]; RNA 2.0 μM): 69.7 ± 1.2 deg | Lag-time ([3]; RNA 2.0 μM): 5.1 ± 0.6 min | Max. Amplitude ([3]; RNA 2.0 μM): 65.8 ± 0.8 mm

9.3Tmut: 9.3T mutant control, SEQ ID NO: 4 (AUGGGGACUGUGCCGCGUAAUGCUGCCUCCCCAU; 2'-fluoro at CU, RNA at AG, backbone not given here) [Aptamer 9.3Tmut, reference compound]
Angle ([1]; RNA 1.00 μM): 69.0 ± 4.8 deg | Lag-time ([1]; RNA 1.00 μM): 2.7 ± 0.4 min | Max. Amplitude ([1]; RNA 1.00 μM): 67.2 ± 1.6 mm | ETP ([2]; RNA 120 nM, TF 1 ρM): 1446.83 ± 59.97 nM·min | Lag-time ([2]; RNA 120 nM, TF 1 ρM): 3.11 ± 0.20 min | Peak ([2]; RNA 120 nM, TF 1 ρM): 219.57 ± 33.93 nM | TTP ([2]; RNA 120 nM, TF 1 ρM): 7.17 ± 0.59 min | ETP ([2]; RNA 120 nM, TF 5 ρM): 1820.83 ± 80.77 nM·min | Lag-time ([2]; RNA 120 nM, TF 5 ρM): 1.89 ± 0.06 min | Peak ([2]; RNA 120 nM, TF 5 ρM): 355.41 ± 17.21 nM | TTP ([2]; RNA 120 nM, TF 5 ρM): 4.34 ± 0.10 min | Angle ([3]; RNA 2.0 μM): 58.6 ± 7.8 deg | Lag-time ([3]; RNA 2.0 μM): 7.3 ± 2.1 min | Max. Amplitude ([3]; RNA 2.0 μM): 60.1 ± 5.8 mm

R9D-14Tmut: R9D-14T mutant control, SEQ ID NO: 7 (GGCGGTCGATCACACAGTTCAAACGTAATAAGCCGGCGTACGAGGCAGACGACTCGCC; 2'-fluoro at CT, RNA at AG, all phosphodiester, T or U not given here) [Aptamer R9D-14Tmut, reference compound]
Angle ([1]; RNA 5.00 μM): 72.3 ± 0.7 deg | Lag-time ([1]; RNA 5.00 μM): 2.7 ± 0.2 min | Max. Amplitude ([1]; RNA 5.00 μM): 66.1 ± 1.4 mm | ETP ([2]; RNA 5,000 nM, TF 5 ρM): 1564.33 ± 121.22 nM·min | Lag-time ([2]; RNA 5,000 nM, TF 5 ρM): 1.44 ± 0.06 min | Peak ([2]; RNA 5,000 nM, TF 5 ρM): 312.12 ± 8.89 nM | TTP ([2]; RNA 5,000 nM, TF 5 ρM): 3.66 ± 0.17 min | Angle ([3]; RNA 5.0 μM): 56.0 ± 4.8 deg | Lag-time ([3]; RNA 5.0 μM): 6.5 ± 0.4 min | Max. Amplitude ([3]; RNA 5.0 μM): 61.9 ± 4.0 mm

B1: FIX/FX dogbone 2: bifunctional FIX/FX dogbone aptamer, SEQ ID NO: 16 (nucleic acid)
chain: GGAUGGGGACUAUACCGCGUAAUGCUGCCUCCCCAUCCAAAACGUAGAGAGCCCCAGCGAGAUAAUACUUGGCCCCGCUCUUUACGU
modifications: listed as RNA, chemistry not given here
anti-coagulation of dogbones compared to the free combination of aptamers (in words) [4]: equal anti-coagulation compared to the free combination

B2: 4G dogbone 4: truncate of FX/FII dogbone 4, SEQ ID NO: 24 (nucleic acid)
chain: GGGGAUCACACAGUUCAAACGUAAUAAGCCAAUGUACGAGGCAGACCCCAAAGCCCCAGCGAGAUAAUACUUGGCCCCGCU
modifications: listed as RNA, chemistry not given here
anti-coagulation activity of dogbone 4 truncates (in words) [4]: best anti-coagulation activity of the truncates

B3: FX/FII dogbone 1: bifunctional FX/FII dogbone aptamer, SEQ ID NO: 19 (nucleic acid)
chain: GGGGCGGUCGAUCACACAGUUCAAACGUAAUAAGCCAAUGUACGAGGCAGACGACUCGCCCCAAAACGUAGAGAGCCCCAGCGAGAUAAUACUUGGCCCCGCUCUUUACGU
modifications: listed as RNA, chemistry not given here
anti-coagulation of dogbones compared to the free combination of aptamers (in words) [4]: better anti-coagulation when compared to the free aptamers

B4: 3G dogbone 4: truncate of FX/FII dogbone 4, SEQ ID NO: 23 (nucleic acid)
chain: GGGUCGAUCACACAGUUCAAACGUAAUAAGCCAAUGUACGAGGCAGACGACCCAAAGCCCCAGCGAGAUAAUACUUGGCCCCGCU
modifications: listed as RNA, chemistry not given here
anti-coagulation activity of dogbone 4 truncates (in words) [4]: best anti-coagulation activity of the truncates

B5: FIX/FX dogbone 1: bifunctional FIX/FX dogbone aptamer, SEQ ID NO: 15 (nucleic acid)
chain: GGUGGAUGGGGACUAUACCGCGUAAUGCUGCCUCCCCAUCCACCAAAUAGCACGUAGAGAGCCCCAGCGAGAUAAUACUUGGCCCCGCUCUUUACGUGCUA
modifications: listed as RNA, chemistry not given here
anti-coagulation of dogbones compared to the free combination of aptamers (in words) [4]: equal anti-coagulation compared to the free combination

B6: FX/FII dogbone 3: bifunctional FX/FII dogbone aptamer, SEQ ID NO: 21 (nucleic acid)
chain: GGGUCGAUCACACAGUUCAAACGUAAUAAGCCAAUGUACGAGGCAGACGACUCCAAAAGCCCCAGCGAGAUAAUACUUGGCCCCGCU
modifications: listed as RNA, chemistry not given here
anti-coagulation of dogbones compared to the free combination of aptamers (in words) [4]: better anti-coagulation when compared to the free aptamers

B7: 7S-1mut: 7S-1 mutant control, SEQ ID NO: 8 (nucleic acid)
chain: rGrGrGrArGrGrAfCrGrAfUrGfCrGrGrAfCfUfCfCfUfCfCrArArGfCrGrAfCfCrArAfCrAfUfCrGrGfUfCfUfUrAfUfUfUfCrArGrAfUfCrArAfCrArGrAfCrGrAfCfUfCrGfCfUrGrArGrGrAfUfCfCrGrArGrA
Angle ([1]; RNA 0.50 μM): 67.8 ± 3.8 deg | Lag-time ([1]; RNA 0.50 μM): 3.1 ± 0.1 min | Max. Amplitude ([1]; RNA 0.50 μM): 67.2 ± 0.7 mm | ETP ([2]; RNA 30 nM, TF 5 ρM): 1890.67 ± 23.55 nM·min | Lag-time ([2]; RNA 30 nM, TF 5 ρM): 1.73 ± 0.06 min | Peak ([2]; RNA 30 nM, TF 5 ρM): 357.63 ± 7.76 nM | TTP ([2]; RNA 30 nM, TF 5 ρM): 4.45 ± 0.06 min
